{"source": "patent US10434049B2", "about": "“Methods of producing compounds that stimulate hair regrowth, topical formulations, and methods of use” (Joventis S.A., priority 2013, dated 2019)", "format_in_all_cases": "in vivo, human", "key": {"[1]": {"tested_on": "hair growth", "assay": "Six-month study, hair growth by digital analysis of photographs of a chosen spot", "from_the_text": "In a systematic study of twenty volunteers, including 8 women, study participants self-reported hair regrowth metrics by answering questionnaires at the end of each month of treatment with Formula (I) over the course of six months. The mean age of participants was 54 years old (SD=11 years). Participants had no history of hair implants and had normal eating and sleeping patterns. Participants first read and signed an informed consent form in which they were informed about the hair regeneration product, a lotion comprising Formula (I). The information about Formula (I) included that Formula (I) was designed to increase hair growth, that it was based on natural compounds, and that use of the product would not lead to harmful effects. Participants received explicit instructions on how to use the product, were asked to apply the product at least once a day on their scalp, and were asked not to use any other hair growth or regeneration products for the 6-month duration of the study. […] During this session photos were taken to measure and count any increases in hair regrowth, and participants answered questionnaires that probed the effects using Formula (I). […] Hair growth was measured by counting and estimating the total amount of thick/thin hairs on the specific spot, based on digital analysis of each photograph."}, "[2]": {"tested_on": "burn", "assay": "Burned hands of a lab technician, one hand treated, other untreated", "conditions": "treated for one month; untreated hand developed calluses", "description": "Along these lines, a lab technician who burned both hands, and hair regrowth at the site of the burn was assessed. One hand was treated for one month with a composition comprising Formula (I), and the other hand was left untreated. […] The untreated hand developed calluses instead."}, "[3]": {"tested_on": "hair growth", "assay": "Six-month study of twenty volunteers, monthly self-reported hair growth questionnaires", "conditions": "for participants who noticed new hair growth: lotion applied to scalp at least once a day", "from_the_text": "In a systematic study of twenty volunteers, including 8 women, study participants self-reported hair regrowth metrics by answering questionnaires at the end of each month of treatment with Formula (I) over the course of six months. The mean age of participants was 54 years old (SD=11 years). Participants had no history of hair implants and had normal eating and sleeping patterns. Participants first read and signed an informed consent form in which they were informed about the hair regeneration product, a lotion comprising Formula (I). The information about Formula (I) included that Formula (I) was designed to increase hair growth, that it was based on natural compounds, and that use of the product would not lead to harmful effects. Participants received explicit instructions on how to use the product, were asked to apply the product at least once a day on their scalp, and were asked not to use any other hair growth or regeneration products for the 6-month duration of the study. […] During this session photos were taken to measure and count any increases in hair regrowth, and participants answered questionnaires that probed the effects using Formula (I). Questionnaires comprised 14 yes or no questions based on Barber's 1998 the hair growth questionnaire. Barber et al., A hair growth questionnaire for use in the evaluation of therapeutic effects in men, J. DERMATOLOGICAL TREATMENT, Vol. 9(3), pp. 181-86 (1998). The questions included: • Did you notice new hair growth during the past month? • Did you notice new hair growth since the start of treatment? • Did you notice any new hair loss during the past month? • Did you notice any new hair loss since the start of the treatment? • Did you notice more hair loss than before since the start of the treatment? • Did you notice that your hairs felt thicker during the past month? • Did you notice that your hairs felt thicker since the start of the treatment? • Did you notice that your hairs felt more healthy during the past month? • Did you notice that your hairs felt more healthy since the start of the treatment? • The tenth and eleventh questions asked whether hairs felt less fragile during the past month and since the start of the treatment. • The final questions asked whether participants had noticed their hair color increasing and whether it became less grey/white during the past month and since the start of the treatment."}, "[4]": {"tested_on": "collagen in sun damaged skin", "assay": "Cosmetic collagen regeneration clinical trial, high-resolution ultrasound scanner images of skin", "conditions": "ultrasound images before and after treatment, sun damaged skin (FIG. 12A/12B)", "description": "In yet further aspects of the inventive subject matter, cosmetic collagen regeneration effects of Formula (I) were assessed in a clinical trial run by Sempervivum, a medical esthetics company. Twenty-four volunteers (22 women and 2 men) participated in this study. Participants were on average 59 years old (Mean (M)=59 years, Standard Deviation (SD)=12 years). In this case, the age of the participants is 59 years with an average deviation of 12 years. Participants had no history of cosmetic surgery and stated to have normal eating and sleeping patterns. High-resolution ultrasound scanner images of collagen in sun damaged skin are shown in FIG. 12A (before treatment) and FIG. 12B (after treatment). […] It also appears that more interconnected collagen fibers are present in the dermis of the skin, and spots representing collagen seem to be more connected and closer to the epidermal layer."}, "[5]": {"tested_on": "hair growth", "assay": "Before/after photographs of individual subjects (FIG. 2, FIG. 11)", "from_the_text": "The subject in FIG. 2A starts out with a complete bald spot. […] Before treatment with Formula (I), the subject shown in FIG. 2C has dark, balding hair."}, "[6]": {"conditions": "over the course of treatment, questionnaires (FIG. 10)"}}}
{"compound": "CC1=CC2(C(C)C)CC(=C1)C2(C)C", "note": "(centres unmarked) [Formula (I), 3,6,6-trimethyl-5-(propan-2-yl)bicyclo[3.1.1]hepta-1,3-diene]", "values": [{"measurement": "increase in long fine and thick hairs in balding participants", "setting": "[1]; after 6 months, photo analysis (FIG. 8)", "value": "triple to quadruple overall increases"}, {"measurement": "hair growth in bald participants, including alopecia patients", "setting": "[1]; photo analysis, participants initially with no hair at the probed place (FIG. 7)", "value": "both fine hairs and more thick hairs suddenly started to grow"}, {"measurement": "skin outcome of burned hand", "setting": "[2]", "value": "developed new smooth skin"}, {"measurement": "participants who noticed new hair growth", "setting": "[3]; after 1 month of treatment, self-reported", "value": 47, "unit": "%"}, {"measurement": "participants who noticed new hair growth", "setting": "[3]; after 6 months of treatment, self-reported", "value": 94, "unit": "%"}, {"measurement": "participants who noticed an increase in hair loss", "setting": "[3]; at some point during treatment, self-reported", "value": 20, "unit": "%"}, {"measurement": "overall effect on hair growth", "setting": "[3]; conclusion from questionnaires and photo analyses, 6-month study", "value": "highly effective in stimulating hair growth"}, {"measurement": "participants who noticed an increase in healthy hair, thicker hair and less fragile hair", "setting": "[3]; during the last month of treatment and since the start of treatment, self-reported (FIG. 5)", "value": "85-92%"}, {"measurement": "hair color in participants with white/grey hair before treatment", "setting": "[3]; last month of treatment and since start of treatment, self-reported (FIG. 6)", "value": "significant increase in color"}, {"measurement": "amount of thick hair in participants with thin hair", "setting": "[3]; over the course of treatment (FIG. 9)", "value": "significant increase in the amount of thick hair"}, {"measurement": "amount of white hair in participants with white/grey hair", "setting": "[3]; [6]", "value": "increased to a lesser extent"}, {"measurement": "black hair as percent of total hair in participants with white/grey hair", "setting": "[3]; [6]", "value": "increase in the percent of total hair that was black"}, {"measurement": "participants who noticed that some new hairs fell out", "setting": "[3]; over the whole course of the treatment, self-reported, alopecia patients excluded", "value": 14, "unit": "%"}, {"measurement": "collagen in skin after treatment", "setting": "[4]", "value": "significant increases in collagen"}, {"measurement": "hair regrowth at alopecia site, subject who lost all body hair after trauma", "setting": "[5]; after 4 months of treatment (FIG. 11A/11B)", "value": "hair growth at the alopecia site"}, {"measurement": "hair regrowth, subject with complete bald spot", "setting": "[5]; after 6 months of treatment (FIG. 2A/2B)", "value": "white hair has grown into the bald spot"}, {"measurement": "hair regrowth, subject with dark, balding hair", "setting": "[5]; after 6 months of treatment (FIG. 2C/2D)", "value": "dark hair has begun to regrow"}]}
